Results as given in ChEMBL document CHEMBL5728748 (2021).

Assay: TarO Biochemical Enzymatic Assay: The TarO biochemical enzymatic assay is a liquid chromatography-mass spectroscopy (LC-MS) based end point assay that measures C55-P-P-GlcNAc (LIPID III) production. The TarO biochemical enzymatic assay was performed in a 384-well microtiter plate (Labcyte) with a reaction volume of 20 μl. The reaction mix contained 0.1 μgs/μl of TarO membrane preparation derived from MRSA COL (lysostaphin/lysozyme treated, centrifuged at 40K rpm, and re-suspended in 50 mM Tris pH 7.5, 10 mM MgCl2), 1500 μM UDP-GlcNAc, x 75 μM C55-P substrates in 83 mM Tris pH 8.0, 6.7 mM MgCl2, 6 mM CHAPS, and 8.3% DMSO buffer. The enzyme reactions were quenched by extraction in 40 μl of 1-pentanol containing 0.04 μM […] C55-PP-GlcNAc, which was used as an internal standard. A 10 μl volume of the quenched reaction mixture (pH≈3) from each well was injected onto a reversed-phase column (C4, 5 m, 2.1×50 mm, Thermo Scientific Biobacis-4) and eluted using a NH4Ac/H2O/MeOH gradient (solvent A: 10 mM NH4Ac in water, pH 5.6; solvent B: NH4Ac (1 M)-Isopropanol (1:90, v/v, pH 5.6). The HPLC conditions were as follows: 15% solvent B for 15 seconds followed by a gradient to 90% solvent B in 90 seconds; then solvent B was kept at 95% for 10 seconds followed by a gradient to 8% solvent B in 0.1 minute. The column was then equilibrated at 15% B for 1 minute before the next injection. The flow rate was kept constant at 600 μl/minute. Mass spectrometric detection was carried out in the negative-ion mode using selected reaction monitoring (SRM). Typical mass spectrometric conditions were as follows: heated capillary temperature, 210° C.; spray voltage, 2500 V; desolvation gas (N2), 40 l/h; auxiliary gas (N2), 35 l/h. Selected ion current (SIC) chromatograms of C55-PP-GlcNAc and internal standard 15C C55-PP-GlcNAc were plotted and integrated using LCQuan incorporated in Xcalibur software (ThermoFinnigan). The linearity of C55-PP-GlcNAc concentration versus mass spectrometric signal (AC55-PP-GlcNAc/A15C-C55-PP-GlcNAc) was determined with purified C55-PP-GlcNAc. The IC50 values were calculated using the nonlinear regression analysis (sigmoidal dose response fit allowing for a variable slope) of percent inhibition data with minimum and maximum values set to 0 and 100 percent.

SMILES | IC50 [nM]
C[C@H]1[C@@H](c2cc(C(F)(F)F)cc(C(F)(F)F)c2)OC(=O)N1C(=O)Cc1cccc2ccccc12 | 130
C[C@H]1[C@@H](c2cc(C(F)(F)F)cc(C(F)(F)F)c2)OC(=O)N1C(=O)CCc1cccc2ccccc12 | 10
O=C(NCc1cncc2ccccc12)N1C(=O)O[C@H](c2cc(F)cc(C(F)(F)F)c2)[C@@H]1CCO | 4770
C[C@H]1[C@@H](c2cc(C(F)(F)F)cc(C(F)(F)F)c2)OC(=O)N1C(=O)CCc1cncc2ccccc12 | 10
COc1cc(C(F)(F)F)cc([C@H]2OC(=O)N(C(=O)NCc3cncc4cccnc34)[C@H]2CO)n1 | 880
C[C@H]1[C@@H](c2cc(N3CCC(F)(F)C3)cc(C(F)(F)F)c2)OC(=O)N1C(=O)NCc1cccc2cncnc12 | 260
CC[C@H]1[C@@H](c2cc(C(F)(F)F)cc(C(F)(F)F)c2)OC(=O)N1C(=O)CCc1cncc2ccccc12 | 60
Cc1ccc2c(n1)N(CCC(=O)N1C(=O)O[C@H](c3cc(F)cc(C(F)(F)F)c3)[C@@H]1C)CCO2 | 240
O=C(CCc1cncc2ccccc12)N1C[C@H](c2cc(C(F)(F)F)cc(C(F)(F)F)c2)OC1=O | 540
COc1cccc([C@H]2OC(=O)N(C(=O)CCc3cccc4ccccc34)[C@H]2C)n1 | 3000
Cc1cc(C)cc([C@H]2OC(=O)N(C(=O)CCc3cncc4ccccc34)[C@H]2C)c1 | 1070
C[C@H]1[C@@H](c2cccc(Br)n2)OC(=O)N1C(=O)CCc1cccc2ccccc12 | 480
C[C@H]1[C@@H](c2cccc(OC(F)(F)F)c2)OC(=O)N1C(=O)CCc1cccc2ccccc12 | 40
COc1cc([C@H]2OC(=O)N(C(=O)NCc3cncc4cccnc34)C[C@H]2C)cc(C(F)(F)F)c1 | 1260
Cc1cc([C@H]2OC(=O)N(C(=O)CCc3cccc4cnccc34)[C@H]2C)cc(C(F)(F)F)c1 | 250
C[C@H]1[C@@H](c2cc(Br)cc(C(F)(F)F)c2)OC(=O)N1C(=O)CCc1cncc2ccccc12 | 1490
COc1cccc([C@H]2OC(=O)N(C(=O)CCc3cncc4ccccc34)[C@H]2C)c1 | 1200
C[C@H]1[C@@H](c2cccc(OC(F)(F)F)c2)OC(=O)N1C(=O)CCc1cncc2ccccc12 | 140

SMILES | IC50 [nM]
C[C@H]1[C@@H](c2cccc(F)c2)OC(=O)N1C(=O)CCc1cncc2ccccc12 | 3000
C[C@H]1[C@@H](c2cc(C(F)(F)F)cc(C(F)(F)F)c2)OC(=O)N1C(=O)CCc1cccc2sccc12 | 10
C[C@@H]1NN(C(=O)NCc2cncc3ccccc23)C(=O)O[C@@H]1c1cc(F)cc(C(F)(F)F)c1 | 950
O=C(CCc1cncc2ccccc12)N1CC(c2cccc(F)c2F)OC1=O (stereo not given) | 1200
C[C@H]1[C@@H](c2cc(F)cc(C(F)(F)F)c2)OC(=O)N1C(=O)CCc1cncc2ccccc12 | 80
C[C@H]1[C@@H](c2cc(C(F)(F)F)cc(C(F)(F)F)c2)OC(=O)N1C(=O)COc1cccc2ccccc12 | 40
O=C(CCc1cncc2ccccc12)N1CC(c2cc(C(F)(F)F)cc(C(F)(F)F)c2)OC1=O (stereo not given) | 420
COc1cc(C(F)(F)F)nc([C@@H]2OC(=O)N(C(=O)NCc3cncc4ccccc34)[C@H]2C)n1 | 2170
Cc1cccc(OCC(=O)N2C(=O)O[C@H](c3cccc(C(F)(F)F)c3)[C@@H]2C)c1C | 680
C[C@H]1[C@@H](c2cc(F)c(F)c(F)c2)OC(=O)N1C(=O)CCc1cncc2ccccc12 | 1810
C[C@H]1[C@@H](c2cc(C(F)(F)F)ccn2)OC(=O)N1C(=O)CCc1cncc2ccccc12 | 6980
C[C@H]1[C@@H](c2cc(C(F)(F)F)cc(C(F)(F)F)c2)OC(=O)N1C(=O)CCc1cccc2ncccc12 | 250
C[C@H]1[C@@H](c2ccc(F)c(F)c2)OC(=O)N1C(=O)CCc1cncc2ccccc12 | 4640
C[C@H]1[C@@H](c2cc(C(F)(F)F)cc(C(F)(F)F)c2)OC(=O)N1C(=O)CCc1cccc2ccncc12 | 410
C[C@H]1[C@@H](c2cc(N(C)C)cc(C(F)(F)F)c2)OC(=O)N1C(=O)NCc1cncc2ccccc12 | 30
Cc1cc(F)cc([C@H]2OC(=O)N(C(=O)CCc3cncc4ccccc34)[C@H]2C)c1 | 1880
C[C@H]1CN(C(=O)NCc2cncc3ccccc23)C(=O)O[C@@H]1c1cc(C(F)(F)F)cc(C(F)(F)F)c1 (single isomer, unassigned) | 30
